Laboratory results taken from US11814367B2, “Inhibitors of glycogen synthase 1 (GYS1) and methods of use thereof” (Maze Therapeutics, Inc., priority 2021, dated 2023).

Tests used:
[1] = biological target: hGYS2 enzyme (recombinant hGYS2/GN1 protein) (Homo sapiens (Human), UniProt P54840); test: GYS2 coupled enzyme assay (PK/LDH); type: biochemical; details: geometric mean of at least 2 assay runs on separate days, read-out: Avg_IC50
Summary of the method: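 IC50 came from Hill fits of duplicate percent inhibition, based on control-normalized slopes of 340 nm NADH decline read each minute for 10 min. The reaction held recombinant hGYS2/GN1 (200 nM) with glycogen, UDP-glucose, G6P and PEP, plus PK/LDH coupling at pH 7.5 and 2.5% DMSO.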

[2] = biological target: hGYS1 enzyme (recombinant hGYS1/GN1 protein) (Homo sapiens (Human), UniProt P13807); test: GYS1 coupled enzyme assay (PK/LDH); type: biochemical; details: hGYS1/GN1 50 nM, UDP-Glucose 0.8 mM, G6P 1 mM; geometric mean of at least 2 runs
hGYS1 enzyme (recombinant hGYS1/GN1 protein), sequence (P13807 whole entry): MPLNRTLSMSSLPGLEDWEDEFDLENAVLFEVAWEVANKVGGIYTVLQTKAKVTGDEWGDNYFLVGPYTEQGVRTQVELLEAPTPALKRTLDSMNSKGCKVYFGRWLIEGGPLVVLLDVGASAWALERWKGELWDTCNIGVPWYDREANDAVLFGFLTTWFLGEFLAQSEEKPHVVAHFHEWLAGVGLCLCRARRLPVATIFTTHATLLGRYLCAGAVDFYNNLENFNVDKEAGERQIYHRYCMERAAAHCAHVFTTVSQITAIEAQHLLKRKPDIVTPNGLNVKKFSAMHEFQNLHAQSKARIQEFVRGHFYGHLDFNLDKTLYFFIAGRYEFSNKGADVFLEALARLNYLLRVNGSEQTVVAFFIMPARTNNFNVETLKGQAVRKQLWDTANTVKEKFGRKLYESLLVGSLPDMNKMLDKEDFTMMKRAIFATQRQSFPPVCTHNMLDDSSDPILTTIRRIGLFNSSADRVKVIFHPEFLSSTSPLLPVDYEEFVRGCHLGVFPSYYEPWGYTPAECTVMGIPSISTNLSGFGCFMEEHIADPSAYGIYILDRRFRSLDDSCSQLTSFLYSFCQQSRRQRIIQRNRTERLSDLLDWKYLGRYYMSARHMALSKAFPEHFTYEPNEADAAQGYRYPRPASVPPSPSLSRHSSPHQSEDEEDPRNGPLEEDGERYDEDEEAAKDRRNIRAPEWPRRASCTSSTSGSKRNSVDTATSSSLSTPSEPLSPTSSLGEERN
hGYS1 enzyme (recombinant hGYS1/GN1 protein), sequence (P46976 whole entry partner): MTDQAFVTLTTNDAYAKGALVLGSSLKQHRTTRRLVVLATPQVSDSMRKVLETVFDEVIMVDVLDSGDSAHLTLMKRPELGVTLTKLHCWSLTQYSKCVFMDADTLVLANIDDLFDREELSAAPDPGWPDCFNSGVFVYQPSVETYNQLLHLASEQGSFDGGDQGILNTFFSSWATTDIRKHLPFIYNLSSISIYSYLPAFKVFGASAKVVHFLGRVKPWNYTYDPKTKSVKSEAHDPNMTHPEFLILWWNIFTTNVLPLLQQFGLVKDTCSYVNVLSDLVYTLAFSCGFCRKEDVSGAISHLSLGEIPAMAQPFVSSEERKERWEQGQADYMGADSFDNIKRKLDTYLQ

[3] = test system: hGYS1 enzyme / glycogen synthesis in HeLa cells; test: GYS1 cell based assay (glycogen synthesis, Glucose-glo); design: species or system human; details: Homo sapiens, HeLa, 24 h, 24 h incubation, 20 mM glucose, geometric mean of at least 2 runs
Summary of the method: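 HeLa cells starved 24 h in medium containing only 1× Glutamax were plated onto compound in medium with 20 mM glucose (1% DMSO final) for 24 h, 37 °C, 5% CO2. Acid lysates were Tris-quenched, glucoamylase-digested (pH 5.3, 1 h, 37 °C) and read by Glucose-glo luminescence. IC50 came from Hill fits, as geometric mean of ≥2 runs.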

hGYS2 enzyme (recombinant hGYS2/GN1 protein), sequence (P54840 whole entry): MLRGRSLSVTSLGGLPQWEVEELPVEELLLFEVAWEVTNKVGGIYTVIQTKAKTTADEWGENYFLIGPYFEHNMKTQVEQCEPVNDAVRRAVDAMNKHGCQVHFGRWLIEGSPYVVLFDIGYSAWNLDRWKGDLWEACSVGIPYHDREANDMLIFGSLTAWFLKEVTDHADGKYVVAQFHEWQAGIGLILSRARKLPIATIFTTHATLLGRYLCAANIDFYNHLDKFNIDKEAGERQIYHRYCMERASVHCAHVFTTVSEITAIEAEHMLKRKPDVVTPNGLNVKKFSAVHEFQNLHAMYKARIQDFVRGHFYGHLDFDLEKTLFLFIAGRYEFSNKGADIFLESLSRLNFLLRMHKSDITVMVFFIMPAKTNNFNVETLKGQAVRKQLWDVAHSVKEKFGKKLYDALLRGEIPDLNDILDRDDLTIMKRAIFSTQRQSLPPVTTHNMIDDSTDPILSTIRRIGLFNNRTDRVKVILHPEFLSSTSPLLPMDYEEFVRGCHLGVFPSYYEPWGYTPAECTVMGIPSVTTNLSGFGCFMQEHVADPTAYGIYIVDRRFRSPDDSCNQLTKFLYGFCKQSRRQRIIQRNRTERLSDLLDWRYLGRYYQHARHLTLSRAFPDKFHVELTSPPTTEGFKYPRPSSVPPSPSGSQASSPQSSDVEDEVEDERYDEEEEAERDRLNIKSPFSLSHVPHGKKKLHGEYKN
hGYS2 enzyme (recombinant hGYS2/GN1 protein), sequence (P46976 whole entry partner): as the sequence (P46976 whole entry partner) above

| SMILES | IC50 [1] | IC50 [2] | IC50 [3] |
| --- | --- | --- | --- |
| CC(C)c1ccc([C@@H](NC(=O)[C@@H]2C[C@@H](F)CN2C(=O)Cc2cnn[nH]2)c2ccccc2)cc1F [Compound 326, (2S,4R)-4-fluoro-N-[(S)-[3-fluoro-4-(propan-2-yl)phenyl](phenyl)methyl]-1-[2-(1H-1,2,3-triazol-5-yl)acetyl]pyrrolidine-2-carboxamide] | > 100 µM | 0.02 µM | 0.34 µM |
| CC(=O)NCc1nnc(CC(=O)N2C[C@H](F)C[C@H]2C(=O)N[C@@H](c2ccccc2)c2ccc(C(C)C)cc2)o1 [Compound 239, (2S,4R)-1-{2-[5-(acetamidomethyl)-1,3,4-oxadiazol-2-yl]acetyl}-4-fluoro-N-[(S)-phenyl[4-(propan-2-yl)phenyl]methyl]pyrrolidine-2-carboxamide] | > 100 µM | 0.067 µM | 1.56 µM |
| CC(C)c1ccc([C@@H](NC(=O)[C@@H]2C[C@@H](F)CN2C(=O)Cn2cnc3ccccc32)c2ccccc2)nc1F [Compound 389, (2S,4R)-1-[2-(1H-1,3-benzodiazol-1-yl)acetyl]-4-fluoro-N-[(S)-[6-fluoro-5-(propan-2-yl)pyridin-2-yl](phenyl)methyl] pyrrolidine-2-carboxamide] | > 90.3 µM | 0.004 µM | 0.05 µM |
| COc1nc(C(NC(=O)[C@@H]2C[C@@H](F)CN2C(=O)Cc2cnn[nH]2)c2ccccc2)ccc1C(C)C (single isomer, unassigned) [Compound 612, (2S,4R)-4-fluoro-N-[(S) or (R)-[6-methoxy-5-(propan-2-yl)pyridin-2-yl] (phenyl)methyl]-1-[2-(1H-1,2,3-triazol-5-yl)acetyl]pyrrolidine-2-carboxamide] |  | 2.18 µM | > 28.9 µM |
| CC1(c2ccc([C@H](NC(=O)[C@@H]3C[C@@H](F)CN3C(=O)Cc3cnn[nH]3)c3ccccc3)cc2F)CCC1 [Compound 684, (2S,4R)-4-fluoro-N-[(R)-[3-fluoro-4-(1-methylcyclobutyl)phenyl](phenyl)methyl]-1-[2-(1H-1,2,3-triazol-5-yl)acetyl]pyrrolidine-2-carboxamide] |  | 1.33 µM | 13.8 µM |
| O=C(N[C@@H](c1ccccc1)c1ccc(C2CC2)c(F)c1)[C@@H]1C[C@@H](F)CN1C(=O)Cc1cc2ccccc2[nH]1 [Compound 460, (2S,4R)-N-[(S)-(4-cyclopropyl-3-fluorophenyl)(phenyl)methyl]-4-fluoro-1-[2-(1H-indol-2-yl)acetyl] pyrrolidine-2-carboxamide] |  | 0.187 µM | 2.42 µM |
| CN(C)c1cnn(CC(=O)N2C[C@H](F)C[C@H]2C(=O)N[C@H](c2ccccc2)c2ccc(C3CC3)c(F)n2)n1 [Compound 717, (2S,4R)-N-[(R)-(5-cyclopropyl-6-fluoropyridin-2-yl)(phenyl)methyl]-1-{2-[4-(dimethylamino)-2H-1,2,3-triazol-2-yl]acetyl}-4-fluoropyrrolidine-2-carboxamide] |  | 1.48 µM | > 25.8 µM |
| CC(=O)N1CCOCC1C(=O)N1C[C@H](F)C[C@H]1C(=O)N[C@@H](c1ccccc1)c1ccc(C(C)C)cc1 (stereo partly drawn) [Compound 149, (2S,4R)-1-(4-acetylmorpholine-3-carbonyl)-4-fluoro-N-[(S)-phenyl[4-(propan-2-yl)phenyl]methyl]pyrrolidine-2-carboxamide] |  | 0.332 µM | > 10 µM |
| CCn1cc(C)cc(CC(=O)N2C[C@H](F)C[C@H]2C(=O)N[C@@H](c2ccccc2)c2ccc(C3CC(F)(F)C3)c(F)n2)c1=O [Compound 525, (2S,4R)-N-[(S)-[5-(3,3-difluorocyclobutyl)-6-fluoropyridin-2-yl](phenyl)methyl]-1-[2-(1-ethyl-5-methyl-2-oxo-1,2-dihydropyrdin-3-yl)acetyl]-4-fluoropyrrolidine-2-carboxamide] |  | 0.004 µM | 0.05 µM |
| CCn1cccc(CC(=O)N2C[C@H](F)C[C@H]2C(=O)N[C@@H](c2ccccc2)c2ccc(C3CC(F)(F)C3)c(F)n2)c1=O [Compound 526, (2S,4R)-N-[(S)-[5-(3,3-difluorocyclobutyl)-6-fluoropyridin-2-yl](phenyl)methyl]-1-[2-(1-ethyl-2-oxo-1,2-dihydropyridin-3-yl)acetyl]-4-fluoropyrrolidine-2-carboxamide] |  | 0.011 µM | 0.13 µM |
| O=C(NC(c1ccccc1)c1ccc(C2CCC2)cn1)[C@@H]1C[C@@H](F)CN1C(=O)Cc1cnn[nH]1 (single isomer, unassigned) [Compound 610, (2S,4R)-N-[(S) or (R)-(5-cyclobutylpyridin-2-yl)(phenyl)methyl]-4-fluoro-1-[2-(1H-1,2,3-triazol-5-yl)acetyl]pyrrolidine-2-carboxamide] |  | 0.107 µM | 1.01 µM |
| Cc1nccc(NCC(=O)N2C[C@H](F)C[C@H]2C(=O)N[C@H](c2ccccc2)c2ccc(C3CC3)c(F)n2)n1 [Compound 720, (2S,4R)-N-[(R)-(5-cyclopropyl-6-fluoropyridin-2-yl)(phenyl)methyl]-4-fluoro-1-{2-[(2-methylpyrimidin-4-yl)amino]acetyl}pyrrolidine-2-carboxamide] |  | 2.45 µM | > 30 µM |

Now from value to compound:

| IC50 [1] | IC50 [2] | IC50 [3] | SMILES |
| --- | --- | --- | --- |
| > 100 µM |  | 0.33 µM | CC(C)c1ccc([C@@H](NC(=O)[C@@H]2C[C@@H](F)CN2C(=O)Cc2nn(C)c(=O)n2C)c2ccccc2)nc1F [Compound 779, (2S,4R)-1-[2-(1,4-dimethyl-5-oxo-4,5-dihydro-1H-1,2,4-triazol-3-yl)acetyl]-4-fluoro-N-[(S)-[6-fluoro-5-(propan-2-yl)pyridin-2-yl](phenyl)methyl] pyrrolidine-2-carboxamide] |
|  | 0.023 µM | 1.7 µM | O=C(N[C@@H](c1ccccc1)c1ccc(C2CC2)c(F)n1)[C@@H]1C[C@@H](F)CN1C(=O)Cc1[nH]nnc1C(F)F [Compound 756, (2S,4R)-N-[(S)-(5-cyclopropyl-6-fluoropyridin-2-yl)(phenyl)methyl]-1-{2-[4-(difluoromethyl)-1H-1,2,3-triazol-5-yl]acetyl}-4-fluoropyrrolidine-2-carboxamide] |
|  | 0.105 µM | 1.21 µM | O=C(N[C@@H](c1ccccc1)c1ccc(C2CC2)c(F)n1)[C@@H]1C[C@@H](F)CN1C(=O)Cc1nc(C(F)(F)F)co1 [Compound 738, (2S,4R)-N-[(S)-(5-cyclopropyl-6-fluoropyridin-2-yl)(phenyl)methyl]-4-fluoro-1-{2-[4-(trifluoromethyl)-1,3-oxazol-2-yl]acetyl}pyrrolidine-2-carboxamide] |
|  | 0.017 µM | 0.14 µM | Cc1cc(C(F)F)nn1CC(=O)N1C[C@H](F)C[C@H]1C(=O)N[C@@H](c1ccccc1)c1ccc(C(C)C)c(F)n1 [Compound 804, (2S,4R)-1-{2-[3-(difluoromethyl)-5-methyl-1H-pyrazol-1-yl]acetyl}-4-fluoro-N-[(S)-[6-fluoro-5-(propan-2-yl)pyridin-2-yl](phenyl)methyl] pyrrolidine-2-carboxamide] |
|  | 0.024 µM | 0.51 µM | O=C(N[C@@H](c1ccccc1)c1ccc(C2CC2)c(F)n1)[C@@H]1C[C@@H](F)CN1C(=O)Cn1nncc1C(F)(F)F [Compound 745, (2S,4R)-N-[(S)-(5-cyclopropyl-6-fluoropyridin-2-yl)(phenyl)methyl]-4-fluoro-1-{2-[5-(trifluoromethyl)-1H-1,2,3-triazol-1-yl]acetyl}pyrrolidine-2-carboxamide] |
|  | 0.102 µM | 1.06 µM | O=C(N[C@@H](c1ccccc1)c1ccc(C2CC2)c(F)n1)[C@@H]1C[C@@H](F)CN1C(=O)Cn1nnnc1C(F)(F)F [Compound 755, (2S,4R)-N-[(S)-(5-cyclopropyl-6-fluoropyridin-2-yl)(phenyl)methyl]-4-fluoro-1-{2-[5-(trifluoromethyl)-1H-1,2,3,4-tetrazol-1-yl]acetyl}pyrrolidine-2-carboxamide] |
|  | 0.027 µM | 0.42 µM | Cn1ncc(C(F)F)c1CC(=O)N1C[C@H](F)C[C@H]1C(=O)N[C@@H](c1ccccc1)c1ccc(C2CC2)c(F)n1 [Compound 754, (2S,4R)-N-[(S)-(5-cyclopropyl-6-fluoropyridin-2-yl)(phenyl)methyl]-1-{2-[4-(difluoromethyl)-1-methyl-1H-pyrazol-5-yl]acetyl}-4-fluoropyrrolidine-2-carboxamide] |
|  | 0.009 µM | 0.32 µM | CCn1cc(C)cc(CC(=O)N2C[C@H](F)C[C@H]2C(=O)N[C@@H](c2ccccc2)c2ccc(C3CC3)c(F)n2)c1=O [Compound 740, (2S,4R)-N-[(S)-(5-cyclopropyl-6-fluoropyridin-2-yl)(phenyl)methyl]-1-[2-(1-ethyl-5-methyl-2-oxo-1,2-dihydropyridin-3-yl)acetyl]-4-fluoropyrrolidine-2-carboxamide] |
|  | 0.016 µM | 0.42 µM | O=C(N[C@@H](c1ccccc1)c1ccc(C2CC2)c(F)n1)[C@@H]1C[C@@H](F)CN1C(=O)Cn1nncc1C(F)F [Compound 747, (2S,4R)-N-[(S)-(5-cyclopropyl-6-fluoropyridin-2-yl)(phenyl)methyl]-1-{2-[5-(difluoromethyl)-1H-1,2,3-triazol-1-yl]acetyl}-4-fluoropyrrolidine-2-carboxamide] |
